From US20250026733A1, “DEUTERATED ANALOGS OF PYROLE INHIBITORS OF ERK, SYNTHESIS THEREOF AND INTERMEDIATES THERETO” (BIOMED VALLEY DISCOVERIES, INC., priority 2022, published 2025)
Like-named read-outs stand apart in the source and are kept apart here.

Columns and labels:
[1] = target: T1, CYP2B6 (Homo sapiens, UniProt P20813); assay: In-vitro CYP inhibition study, CYP2B6; assay type: in vitro ADME; settings: human liver microsomes, substrate Bupropion (90 μM)
T1 construct: from tissue; host or cells: human liver microsomes, mixed-gender pool of 200
T1 sequence (P20813 1-491): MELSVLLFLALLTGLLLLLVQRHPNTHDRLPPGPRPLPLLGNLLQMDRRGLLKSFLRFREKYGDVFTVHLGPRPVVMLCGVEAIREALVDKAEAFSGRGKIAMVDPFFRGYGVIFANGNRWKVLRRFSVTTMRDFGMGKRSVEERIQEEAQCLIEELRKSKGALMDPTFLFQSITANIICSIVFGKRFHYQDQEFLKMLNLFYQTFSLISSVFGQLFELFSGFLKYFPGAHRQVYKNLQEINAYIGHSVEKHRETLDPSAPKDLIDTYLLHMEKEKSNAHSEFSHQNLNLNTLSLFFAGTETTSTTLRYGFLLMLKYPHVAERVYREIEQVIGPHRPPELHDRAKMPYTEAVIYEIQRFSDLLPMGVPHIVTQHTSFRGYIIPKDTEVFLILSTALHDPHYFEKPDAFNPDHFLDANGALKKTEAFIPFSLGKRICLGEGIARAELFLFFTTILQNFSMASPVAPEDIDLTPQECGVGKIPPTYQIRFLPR
Experimental: (§1) Incubations were conducted using a cocktail of seven prototypical CYP substrates to ascertain the potential of each test article to inhibit the metabolism of concomitantly administered drugs. A mixed-gender pool of 200 human liver microsomal samples was used for this study. Incubations were conducted at approximately 37° C. in 200 μL incubation mixtures (pH 7.4) containing water, potassium phosphate buffer (50 mM), MgCl2 (3 mM), EDTA (1 mM), an NADPH regenerating system (NADP [1 mM], glucose 6 phosphate [5 mM], glucose 6 phosphate dehydrogenase [1 Unit/mL]), and probe substrate (i.e., a seven substrate cocktail) at the final concentrations indicated in Table 9. Reactions were initiated by the addition of NADPH-regenerating system and were automatically terminated at approximately 5 minutes by the addition of internal standard mixed in stop reagent, acetonitrile. The samples were centrifuged at 920×g for 10 minutes at 10° C. The supernatant fractions were analyzed by LC-MS/MS. To examine its ability to act as a time-dependent inhibitor of CYP enzymes, each test article (at the same concentrations used to evaluate direct inhibition, (i.e. 0, 0.02, 0.06, 0.2, 0.6, 2, 6, 20 μM) was pre-incubated at 37±2° C. with NADPH-fortified human liver microsomes for approximately 30 minutes. The pre-incubations were initiated by the addition of NADPH-regenerating system. After 30 min, probe substrate incubations were initiated by the addition of probe substrate cocktail. Incubations were terminated and samples were analyzed by LC-MS/MS. When inhibition was observed, the data were processed with a LIMS for the determination of IC50 values by utilizing the Levenberg-Marquardt algorithm to perform non-linear regression fitting of the data to the following 4-parameter sigmoidal-logistic IC50 equation:
(§2) As percent of control values are utilized, the minimum value (Min) is set to zero and the maximum value (Max) is set to 100 (or other values, as appropriate). The LIMS calculates an IC50 value only when it lies within the concentration range of the inhibitor studied. Therefore, when an IC50 value falls outside the concentration range studied, the IC50 values are reported to be greater than the highest concentration of the test article evaluated.

[2] = tested on: CYP2B6 mRNA expression; assay: In-vitro CYP induction study, CYP2B6 mRNA in cultured human hepatocytes; settings: 20 μM, approximately 24 h
Experimental: (§3) A single preparation of characterized cryopreserved human hepatocytes isolated from non-transplantable human livers was treated in this study. Triplicate wells for each of the cultures were treated in 48-well plates with supplemented MCM (37±2° C.) containing 0.1% v/v DMSO (solvent control), one of three concentrations of each test article (1, 10 and 20 μM) or positive control CYP enzyme inducers omeprazole (50 μM), phenobarbital (1000 μM) or rifampin (20 μM). The cultures were incubated in a humidified culture chamber (37±2° C. at 95% relative humidity, 95/5% air/CO2). Approximately 24 h after treatment, hepatocytes were lysed in Buffer RLT reagent containing β-mercaptoethanol (100:1). The medium was aspirated, and Buffer RLT was added to each well. The cell lysates were prepared by repeated pipetting and shaking. Total RNA was isolated using the RNeasy Mini Kit. RNA quality and concentration were determined by measuring absorbance at 260 and 280 nm on a plate reader. Single-stranded cDNA was prepared from RNA with the RT Master Mix. The RT Master Mix comprises 10×RT buffer, 25× deoxyNTPs, 10× Random primers, RNase Inhibitor (20 U/μL), MultiScribe reverse transcriptase (50 U/μL) and RNase-free water. The RT Master Mix was added to each RNA sample to complete the components of the reaction. No template controls (NTCs) were included in the analysis. For the NTC reactions, RNase-free water was added in place of the RNA sample. The prepared cDNA samples were stored at −20±5° C. following analysis by qRT-PCR. Each PCR was performed in quadruplicate. A Primer Mix was prepared for each Gene Expression assay. A typical Primer Mix contained TaqMan Fast Advanced Master Mix (1×), Gene Expression Assay (1×, 900 nM forward and reverse primers) and RNase-free water. The Reaction Mix was prepared by adding the Primer Mix to cDNA. A percentage of samples (no less than 10%) included NAC (no amplification control) samples. […] Reactions were analyzed on a PCR sequence detection system. The relative quantity of the target cDNA compared with that of the control cDNA (GAPDH) was determined by the ΔΔCt method. Relative quantitation measures the change in mRNA expression in a test sample relative to that in a control sample (e.g., DMSO). This method assumes that the efficiency of the target amplification and the efficiency of the endogenous control amplification are approximately equal.

[3] = Half-life determination in human liver microsomes; assay type: in vitro ADME; settings: for half-life at 1 μM: human, NADPH; for Half-life, % change relative to ulixertinib: mean
Experimental: Human microsomes from a pool of 10 donors was obtained from a commercial source. Microsomes prepared in potassium phosphate buffer were spiked with ulixertinib, Formula 18, Formula 19, and Formula 21 individually in replicates of six at a final concentration of 1 μM. NADPH was used to initiate the experiment; a control of minus NADPH (minus cofactor) was also run in parallel to the human liver microsome stability. After spiking with test article, microsome replicates were placed in a 37° C. incubator with the following time course: 0, 5, 10, 15, 20, 30, 45 and 60 minutes. Samples were extracted with a protein precipitation quench consisting of ice cold acetonitrile containing internal standard (tolbutamide). Samples were analyzed for ulixertinib, Formula 18, Formula 19, and Formula 21. The half-lives of ulixertinib, Formula 18, Formula 19, and Formula 21 were characterized by the […] to determine the elimination rate (ke) and using the formula described below.
[formula] • ke (elimination rate): the slope of ln(percent remaining) vs time (in minutes)

[4] = tested on: CYP3A4 mRNA expression; assay: In-vitro CYP induction study, CYP3A4 mRNA in cultured human hepatocytes; settings: 20 μM, approximately 24 h
Experimental: as §3

[5] = target: T2, CYP2C9 (Homo sapiens, UniProt P11712); assay: In-vitro CYP inhibition study, CYP2C9; assay type: in vitro ADME; settings: human liver microsomes, substrate Diclofenac (12 μM)
T2 construct: from tissue; host or cells: human liver microsomes, mixed-gender pool of 200
T2 sequence (P11712 whole entry): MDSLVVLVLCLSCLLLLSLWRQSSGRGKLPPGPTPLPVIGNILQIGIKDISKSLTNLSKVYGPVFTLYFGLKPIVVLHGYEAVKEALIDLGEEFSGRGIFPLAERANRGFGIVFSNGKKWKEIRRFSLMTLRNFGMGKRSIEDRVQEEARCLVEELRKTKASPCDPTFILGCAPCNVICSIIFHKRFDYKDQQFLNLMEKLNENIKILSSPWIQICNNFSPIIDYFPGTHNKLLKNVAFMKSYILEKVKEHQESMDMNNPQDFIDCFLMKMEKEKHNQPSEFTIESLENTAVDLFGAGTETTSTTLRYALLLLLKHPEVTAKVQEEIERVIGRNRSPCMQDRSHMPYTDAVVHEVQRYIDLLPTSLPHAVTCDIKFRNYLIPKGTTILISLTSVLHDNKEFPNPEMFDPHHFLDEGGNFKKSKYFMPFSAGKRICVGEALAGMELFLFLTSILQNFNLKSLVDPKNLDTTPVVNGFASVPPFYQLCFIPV
Experimental: as §1, §2

[6] = tested on: CYP3A4/5; assay: In-vitro CYP inhibition study, CYP3A4/5; assay type: in vitro ADME; settings: both sexes, human, human liver microsomes, pH 7.4, probe Midazolam (3 μM), substrate Midazolam (3 μM)
Experimental: as §1, §2

[7] = tested on: CYP1A2 mRNA expression; assay: In-vitro CYP induction study, CYP1A2 mRNA in cultured human hepatocytes; settings: approximately 24 h
Experimental: as §3

[8] = tested on: CYP3A4 mRNA expression; settings: human, hepatocytes, 24 h
Experimental: as §3

[9] = target: T3, CYP2C19 (Homo sapiens, UniProt P33261); assay: In-vitro CYP inhibition study, CYP2C19; assay type: in vitro ADME; settings: human liver microsomes, substrate S-Mephenytoin (60 μM)
T3 construct: from tissue; host or cells: human liver microsomes, mixed-gender pool of 200
T3 sequence (P33261 whole entry): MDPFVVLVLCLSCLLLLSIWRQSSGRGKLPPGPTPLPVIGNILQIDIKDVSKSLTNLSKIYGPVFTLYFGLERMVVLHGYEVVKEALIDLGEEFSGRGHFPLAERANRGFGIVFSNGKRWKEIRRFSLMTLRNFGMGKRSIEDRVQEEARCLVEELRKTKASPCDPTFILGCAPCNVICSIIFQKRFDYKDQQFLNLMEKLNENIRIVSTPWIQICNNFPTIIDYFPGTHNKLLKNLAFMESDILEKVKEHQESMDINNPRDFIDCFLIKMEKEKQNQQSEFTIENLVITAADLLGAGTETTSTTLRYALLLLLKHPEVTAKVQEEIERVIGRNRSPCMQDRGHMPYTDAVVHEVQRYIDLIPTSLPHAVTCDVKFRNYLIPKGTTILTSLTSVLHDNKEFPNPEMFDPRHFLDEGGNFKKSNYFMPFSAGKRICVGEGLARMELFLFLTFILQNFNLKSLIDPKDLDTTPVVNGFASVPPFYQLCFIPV
Experimental: as §1, §2

[10] = tested on: CYP1A2 mRNA expression; settings: human, hepatocytes, 24 h
Experimental: as §3

[11] = Rep 1, read-out: Half-life, t½, Rep 1
[12] = Rep 2, read-out: Half-life, t½, Rep 2
[13] = Rep 3, read-out: Half-life, t½, Rep 3
[14] = Rep 4, read-out: Half-life, t½, Rep 4
[15] = Rep 5, read-out: Half-life, t½, Rep 5
[16] = Rep 6, read-out: Half-life, t½, Rep 6
[17] = six replicates, read-out: Half-life, t½, Mean ± SD

| IC50 ([1]; preincubation 0 min) | IC50 ([1]; preincubation 30 min) | Fold Change in mRNA Expression of CYP2B6 [2] | half-life at 1 μM [3, 11] | half-life at 1 μM [3, 12] | half-life at 1 μM [3, 13] | half-life at 1 μM [3, 14] | half-life at 1 μM [3, 15] | half-life at 1 μM [3, 16] | half-life at 1 μM [3, 17] | Fold Change in mRNA Expression of CYP3A4 [4] | IC50 ([5]; preincubation 0 min) | IC50 ([5]; preincubation 30 min) | IC50 at 5 min ([6]; preincubation 0 min) | IC50 at 5 min ([6]; preincubation 30 min) | Fold Change in mRNA Expression of CYP3A4 ([8]; 1 μM) | Fold Change in mRNA Expression of CYP3A4 ([8]; 10 μM) | IC50 ([9]; preincubation 0 min) | IC50 ([9]; preincubation 30 min) | Fold Change in mRNA Expression of CYP1A2 ([10]; 1 μM) | SMILES | further results |
| --- | --- | --- | --- | --- | --- | --- | --- | --- | --- | --- | --- | --- | --- | --- | --- | --- | --- | --- | --- | --- | --- |
| 12 µM | 16 µM | 2.54 fold | 59.2 min | 58.7 min | 60.6 min | 55.8 min | 57.5 min | 62 min | 59 ± 2.2 min | 7.06 fold | 3.5 µM | 3.9 µM | > 20 µM | 14 µM | 1.83 fold | 5.39 fold | 9.6 µM | 11 µM | 3.02 fold | [2H]C([2H])([2H])C([2H])(Nc1cc(-c2c[nH]c(C(=O)N[C@H](CO)c3cccc(Cl)c3)c2)c(Cl)cn1)C([2H])([2H])[2H] [Formula 18, 4-(5-chloro-2-((propan-2-yl-d7)amino)pyridin-4-yl)-N-(1-(3-chlorophenyl)-2-hydroxyethyl)-1H-pyrrole-2-carboxamide] | longer half-life than ulixertinib ([3]; Table 5): 21%; Half-life, % change relative to ulixertinib [3]: (+21%); Fold Change in mRNA Expression of CYP1A2 ([7]; 20 μM): 7.56 fold; Fold Change in mRNA Expression of CYP1A2 ([10]; 10 μM): 5.94 fold |
| 14 µM | 16 µM | 2.44 fold | 43.4 min | 45.2 min | 46.1 min | 44.9 min | 47.8 min | 44.9 min | 45.4 ± 1.5 min | 11.7 fold | 3.1 µM | 4.3 µM | > 20 µM | 13 µM | 2.06 fold | 9.42 fold | 10 µM | 12 µM | 3.57 fold | [2H]C([2H])([2H])C(Nc1cc(-c2c[nH]c(C(=O)N[C@H](CO)c3cccc(Cl)c3)c2)c(Cl)cn1)C([2H])([2H])[2H] [Formula 19, 4-(5-chloro-2-((propan-2-yl-1,1,1,3,3,3-d6)amino)pyridin-4-yl)-N-(1-(3-chiorophenyl)-2-hydroxyethyl)-1H-pyrrole-2-carboxamide] | shorter half-life compared to ulixertinib ([3]; Table 5): 7%; Half-life, % change relative to ulixertinib [3]: (−7%); Fold Change in mRNA Expression of CYP1A2 ([7]; 10 μM): 12.1 fold; Fold Change in mRNA Expression of CYP1A2 ([10]; 20 μM): 9.52 fold |
| 17 µM | 19 µM | 2.22 fold |  |  |  |  |  |  |  | 6.86 fold | 3.4 µM | 4.4 µM | > 20 µM | 17 µM | 1.39 fold | 5.29 fold | 19 µM | 19 µM |  | Cl.[2H]C(C)(C)Nc1cc(-c2c[nH]c(C(=O)N[C@H](CO)c3cccc(Cl)c3)c2)c(Cl)cn1 [Formula 21A] | Fold Change in mRNA Expression of CYP1A2 ([7]; 1 μM): 2.22 fold; Fold Change in mRNA Expression of CYP1A2 ([7]; 10 μM): 8.51 fold; Fold Change in mRNA Expression of CYP1A2 ([10]; 20 μM): 4.00 fold |
| 11 µM | 16 µM | 2.43 fold | 49.2 min | 51.2 min | 50.3 min | 46.2 min | 48.5 min | 48.1 min | 48.9 ± 1.8 min | 8.26 fold | 3.1 µM | 3.4 µM | > 20 µM | 14 µM | 1.52 fold | 6.84 fold | 8.5 µM | 9.2 µM | 3.73 fold | CC(C)Nc1cc(-c2c[nH]c(C(=O)N[C@H](CO)c3cccc(Cl)c3)c2)c(Cl)cn1 [Ulixertinib, reference compound] | Fold Change in mRNA Expression of CYP1A2 ([7]; 10 μM): 6.63 fold; Fold Change in mRNA Expression of CYP1A2 ([10]; 20 μM): 6.42 fold |
